Reference: patent US8163935B2, “Fused heterocyclic compounds” (Takeda Pharmaceutical Company Limited, priority 2005, dated 2012)

SMILES | melting point [°C]
CCCC(CCC)c1ccc(Cl)c2nc(Nc3ccc(Cl)cc3Cl)n(C)c12 [Example 91, 4-Chloro-N-(2,4-dichlorophenyl)-1-methyl-7-(1-propylbutyl)-1H-benzimidazol-2-amine] | 146 to 148
CCCC(CCC)c1ccc(Cl)c2nc(Oc3c(C)cc(C)cc3C)n(C)c12 [Example 124, 4-Chloro-2-(mesityloxy)-1-methyl-7-(1-propylbutyl)-1H-benzimidazole] | 165 to 167
CCCC(CCC)c1ccc(Cl)c2nc(Nc3cccc4c3CCCC4)n(C)c12 [Example 117, 4-Chloro-1-methyl-7-(1-propylbutyl)-N-(5,6,7,8-tetrahydronaphthalen-1-yl)-1H-benzimidazol-2-amine] | 236 to 238
CCC(CC)c1ccc(Cl)c2nc(Nc3c(C)cc(Cl)cc3C)n(C)c12 [Example 83, 4-Chloro-N-(4-chloro-2,6-dimethylphenyl)-7-(1-ethylpropyl)-1-methyl-1H-benzimidazol-2-amine] | 247 to 249
CCCC(CCC)c1ccc(Cl)c2nc(Nc3cc(C(F)(F)F)c(O)cc3Cl)n(C)c12 [Example 122, 5-Chloro-4-{[4-chloro-1-methyl-7-(1-propylbutyl)-1H-benzimidazol-2-yl]amino}-2-(trifluoromethyl)phenol] | 197 to 199
COc1cc(Cl)cc(C)c1Nc1nc2c(Cl)ccc(C(O)(C(C)C)C(C)C)c2n1C [Example 107, 3-{4-Chloro-2-[(4-chloro-2-methoxy-6-methylphenyl)amino]-1-methyl-1H-benzimidazol-7-yl}-2,4-dimethylpentan-3-ol] | 218 to 219
COc1cc(Cl)cc(C)c1Nc1nc2c(Cl)ccc(C(O)(C(C)(C)C)C(C)(C)C)c2n1C [Example 106, 3-{4-Chloro-2-[(4-chloro-2-methoxy-6-methylphenyl)amino]-1-methyl-1H-benzimidazol-7-yl}-2,2,4,4-tetramethylpentan-3-ol] | 246 to 248

More lines, now with the values ahead:

melting point [°C] | SMILES
155 to 157 | CCCC(CCC)c1ccc(Cl)c2nc(Oc3c(C)cc(Br)cc3C)n(C)c12 [Example 131, 2-(4-Bromo-2,6-dimethylphenoxy)-4-chloro-1-methyl-7-(1-propylbutyl)-1H-benzimidazole]
150 to 152 | CCCC(CCC)c1ccc(Cl)c2nc(Oc3ccc4c5c3CCN5C(=O)CC4)n(C)c12 [Example 134, 9-{[4-Chloro-1-methyl-7-(1-propylbutyl)-1H-benzimidazol-2-yl]oxy}-1,2,5,6-tetrahydro-4H-pyrrolo[3,2,1-ij]quinolin-4-one]
183 to 184 | CCC(CC)c1ccc(Cl)c2nc(Oc3c(OC)cc(C)nc3C)n(C)c12 [Example 139, 4-Chloro-7-(1-ethylpropyl)-2-[(4-methoxy-2,6-dimethylpyridin-3-yl)oxy]-1-methyl-1H-benzimidazole]
107 to 108 | CCC(CC)c1ccc(CN2CCCC2)c2nc(Oc3c(C)cc(Cl)cc3Cl)n(C)c12 [Example 156, 2-(2,4-Dichloro-6-methylphenoxy)-7-(1-ethylpropyl)-1-methyl-4-(pyrrolidin-1-ylmethyl)-1H-benzimidazole]
145 to 147 | CCC(CC)c1ccc(Cl)c2nc(Oc3c(Cl)cc(OC(F)(F)F)cc3Cl)n(C)c12 [Example 140, 4-Chloro-2-[2,6-dichloro-4-(trifluoromethoxy)phenoxy]-7-(1-ethylpropyl)-1-methyl-1H-benzimidazole]
197 to 198 | CCC(CC)c1ccc(Cl)c2nc(Oc3c(C)cc(Br)cc3C)n(C)c12 [Example 137, 2-(4-Bromo-2,6-dimethylphenoxy)-4-chloro-7-(1-ethylpropyl)-1-methyl-1H-benzimidazole]
165 to 167 | CCC(CC)c1ccc(Cl)c2nc(Oc3c(C)cc(Cl)cc3OC)n(C)c12 [Example 144, 4-Chloro-2-(4-chloro-2-methoxy-6-methylphenoxy)-7-(1-ethyl-1-propyl)-1-methyl-1H-benzimidazole]
